Measured values from patent US20220016196A1, “Aloe Based Compositions Comprising Polysaccharides and Polyphenols for Regulation of Homeostasis of Immunity” (Unigen, Inc., priority 2020, published 2022).

Legend:
Assay type in all cases: in vivo, rat
[1] = test system: TNF-α; test: LPS-induced acute lung injury, serum TNF-α ELISA; details: rats
Experimental: (§1) The study was designed to evaluate the direct impact of an Aloe-based composition (UP360) made in the Example 9 in alleviating LPS-induced acute lung injury administered orally at 500 mg/kg and 250 mg/kg. […] In this study, we treated rats with the test materials orally for 7 days before model induction with LPS. On the 8th day, an hour after oral treatment, LPS was instilled intratracheally (i.t.) at 10 mg/kg dissolved in 0.1 mL/100 g PBS to each rat. The normal control rats received the same volume i.t. PBS only.
(§2) We sacrificed surviving animals 24 hours after intratracheal LPS administration to the rats. At necropsy, collected bronchoalveolar lavage (BAL) by intratracheal injection of 1.5 mL PBS into the right lobe followed by gentle aspiration at least 3 times. Pooled recovered fluid, centrifuged at 1500 rpm for 10 min at 4 ° C., and was used to measure cytokines (e.g. IL-6) and pulmonary protein levels. […]
The presence of TNF-α in undiluted rat serum from Example 23 was measured using the rat TNF-α Quantikine ELISA kit from R&D Systems (product#: RTA00) as follows: undiluted serum was added to a microplate coated with TNF-α antibody. […] After developing for 30 minutes at room temperature, a stop solution was added, and the absorbance was read at 450 nm. The concentration of TNF-α was calculated based on the absorbance readings of a TNF-α standard curve.

[2] = test system: IL-1β; test: LPS-induced acute lung injury, serum IL-1β ELISA; details: rats
Experimental: as §1, §2
The presence of IL-1β in undiluted rat serum from Example 23 was measured using the Rat IL-1β Quantikine ELISA kit from R&D Systems (product#: RLBOO) as follows: undiluted serum was added to a microplate coated with IL-1β antibody. […] After developing for 30 minutes at room temperature, a stop solution was added, and the absorbance was read at 450 nm. The concentration of IL-1β was calculated based on the absorbance readings of an IL-1β standard curve.

[3] = test system: IL-6; test: LPS-induced acute lung injury, BAL IL-6 ELISA; details: rats
Experimental: as §1, §2
The presence of IL-6 in undiluted rat broncho-alveolar lavage (BAL) from Example 23 was measured using the Rat IL-6 Quantikine ELISA kit from R&D Systems (product #: R6000B) as follows: undiluted BAL was added to a microplate coated with IL-6 antibody. […] After developing for 30 minutes at room temperature, a stop solution was added, and the absorbance was read at 450 nm. The concentration of IL-6 was calculated based on the absorbance readings of an IL-6 standard curve.

[4] = test system: MIP-2/CINC-3; test: LPS-induced acute lung injury, lung homogenate MIP-2/CINC-3 ELISA; details: rats
Experimental: as §1
We sacrificed surviving animals 24 hours after intratracheal LPS administration to the rats. At necropsy, collected bronchoalveolar lavage (BAL) by intratracheal injection of 1.5 mL PBS into the right lobe followed by gentle aspiration at least 3 times. […]
50 μL of each rat lung homogenate sample from Example 23 (10 per group for Vehicle, Sodium Butyrate (SB), UP360 Low dose, UP360 High dose, 7 per group for Control) and 50 μL of assay diluent buffer were added to the wells of a 96-well microplate coated with monoclonal CINC-3 antibody and allowed to bind for 2 hours. […] The absorbance of each well was read at 450 nm (with a 580 nm correction) and compared to a standard curve of CINC-3 in order to approximate the amount of CINC-3 in each rat lung homogenate sample.

[5] = LPS-induced acute lung injury, BAL total protein (BCA); details: rats
Experimental: as §1, §2
The amount of total proteins in the broncho-alveolar lavage (BAL) samples from Example 23 was measured using the Pierce BCA Protein Assay kit from ThermoFisher Scientific (product #: 23225) as follows: BAL was diluted 1:5, mixed with bicinchoninic acid (BCA) reagent in a microplate, and incubated at 37° C. for 30 minutes. Absorbance was read at 580 nm, and protein concentration in BAL was calculated based on the absorbance readings of a bovine serum albumin standard curve.

[6] = test system: LPS-induced acute lung injury rats; test: LPS-induced acute lung injury, lung histopathology (H&E)
Experimental: as §1
We sacrificed surviving animals 24 hours after intratracheal LPS administration to the rats. At necropsy, collected bronchoalveolar lavage (BAL) by intratracheal injection of 1.5 mL PBS into the right lobe followed by gentle aspiration at least 3 times. Pooled recovered fluid, centrifuged at 1500 rpm for 10 min at 4 ° C., and was used to measure cytokines (e.g. IL-6) and pulmonary protein levels. This same right lobe was collected for tissue homogenization from each rat for MIP-2/CINC-3 protein analysis. The left lobe was fixed with formalin and submitted for histopathology evaluation to Nationwide Histology for analysis by a certified pathologist. Serum collected at necropsy was used to measure cytokines such as TNF-α and IL-1β.
The left lobe of the lung was used for the histopathology analysis.

[7] = LPS 10 mg/kg i.t., 24 hours post, oral, 500 mg/kg

For CCCC(=O)[O-].[Na+] [Sodium Butyrate], the “serum TNF-α level, Mean ± SD” value ([1]; LPS 10 mg/kg i.t., 24 hours post, oral 7 days pre-treatment, 500 mg/kg) was 3.35 ± 1.73 pg/mL, the “reduction in serum TNF-α level vs vehicle control” value ([1]; LPS i.t., 500 mg/kg oral) was 67.9% and the “serum IL-1β level, Mean ± SD” value [2, 7] was 22.58 ± 9.46 pg/mL. The “reduction in serum IL-1β vs vehicle” value ([2]; LPS i.t., 500 mg/kg oral) was 65.3%, the “BAL IL-6 level, Mean ± SD” value [3, 7] was 1933.30 ± 1744.23 pg/mL and the “reduction in the level of BAL IL-6 vs vehicle” value ([3]; LPS i.t., 500 mg/kg oral) was 37.7%. For the same compound, the “lung homogenate MIP-2/CINC-3 level, Mean ± SD” value [4, 7] was 464.00 ± 220.32 pg/mL, the “reduction in CINC-3 level vs vehicle” value ([4]; LPS i.t., 500 mg/kg oral) was 17.7% and the “BAL protein level, Mean ± SD” value [5, 7] was 2940.14 ± 2092.32 µg/mL. The “reduction in BAL total proteins vs vehicle” value ([5]; LPS i.t., 500 mg/kg oral) was 30.2%, the “Infiltration of PMC” value ([6]; score 0-4, 500 mg/kg) was 2.75 ± 0.78 and the “Pulmonary Edema” value ([6]; score 0-4, 500 mg/kg) was 2.35 ± 0.95. The “Overall lung tissue Severity” value ([6]; score 0-4, H&E left lobe, 500 mg/kg) was 3.05 ± 0.42.
